The structures appear in SMILES notation.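 These data come from cells grown in 96-well plates and exposed to compound for 48 hours at five concentrations. GI50 marks 50% less growth.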 Activity calls are given as the source filed them. Rule as the data show it: active = GI50 up to about 1.1 µM and inactive = higher. Some results are limits rather than exact numbers.

Consider 10 compounds from ChEMBL document CHEMBL1201862, “PubChem BioAssay data set” (2004).

Test in all cases: growth of human tumour cells (NCI), 48 h
In experiment [1] the test system is A549.
Experiment [2] has as its system CCRF-CEM.
The test system of experiment [3] is DU-145.
The test system of experiment [4] is HOP-62.
In experiment [5] the test system is Hs-578T.
For experiment [6], the system named is KM12.
In experiment [7] the test system is LOX IMVI.
In experiment [8] the test system is M14.
The subject of experiment [9] is NCI-H23.
Experiment [10] deals with NCI-H522.
Experiment [11] relates to NCI/ADR-RES.
Experiment [12] concerns OVCAR-5.
Experiment [13] concerns PC-3.
Experiment [14] relates to RXF 393.
Experiment [15] relates to SF-295.
Experiment [16] relates to SK-MEL-28.
In experiment [17] the test system is SK-MEL-5.
Experiment [18] relates to SW-620.
Experiment [19] deals with TK-10.
The test system of experiment [20] is U-251.

Take `CC(=O)NC1CONC1=O` (stereo not given): the GI50 in [1], in experiment [2], in experiment [3], in experiment [4], in experiment [5] and in experiment [6] was > 100 µM (inactive) throughout. For the same compound, the GI50 in experiment [7], in experiment [8], in experiment [9], in experiment [10], in experiment [11] and in experiment [12] was > 100 µM (inactive) throughout. Besides, the GI50 in [13], in experiment [14], in [15], in experiment [16], in experiment [17] and in experiment [18] was > 100 µM (inactive) throughout. Further, the GI50 in experiment [19] and in [20] was > 100 µM (inactive) in each case.

`Cc1cc(S(=O)(=O)Nc2nc(N)n[nH]2)c(SCC(=O)O)cc1Cl`: the GI50 in experiment [1], in experiment [2], in experiment [3], in experiment [4], in experiment [5] and in [6] was > 10 µM (inactive) throughout. The GI50 in experiment [7], in [8], in experiment [9], in experiment [10], in [11] and in experiment [12] was > 10 µM (inactive) each time. Also, the GI50 in experiment [13], in experiment [14], in [15], in experiment [16], in [17] and in experiment [18] was > 10 µM (inactive) each time. Besides, the GI50 in [19] and in [20] was > 10 µM (inactive) in each case.

On to `COc1ccc(/C=C/C(=O)Oc2ccccc2OC)cc1`, for which the GI50 is 37.8 µM (inactive) in experiment [1]; 0.336 µM (active) in [2]; > 61.8 µM (inactive) in experiment [3]; 8 µM (inactive) in [4]; 41.7 µM (inactive) in experiment [5]; 9.04 µM (inactive) in experiment [6]. Also, the GI50 in experiment [7] is 29.9 µM (inactive); in [8], 30.6 µM (inactive); in experiment [9], 33 µM (inactive); in [10] it was 20.3 µM (inactive); in [11] it was 27.8 µM (inactive); in [12], 23.6 µM (inactive). Moreover, the GI50 is 44.4 µM (inactive) in [13]; > 51.5 µM (inactive) in experiment [14]; 3.21 µM (inactive) in experiment [15]; 73.5 µM (inactive) in experiment [16]; 30.7 µM (inactive) in experiment [17]; 21.5 µM (inactive) in experiment [18]. In addition, the results for the GI50 in [19] and in experiment [20] were > 81.8 µM (inactive) and 37.4 µM (inactive), respectively.

For the compound `CC(=O)OC1=CC2=CC[C@H]3[C@@H]4CCC(=O)[C@@]4(C)CC(=O)[C@]3(S)[C@@]2(C)CC1`, the GI50 in [1] is 49.4 µM (inactive); in experiment [2], 29 µM (inactive); in [3], 62.5 µM (inactive); in experiment [4], 38.9 µM (inactive); in experiment [5] it was 25.1 µM (inactive); in experiment [6], 26.3 µM (inactive). Further, the GI50 was 18.8 µM (inactive) in experiment [7]; 36.9 µM (inactive) in [8]; 36.6 µM (inactive) in experiment [9]; 20 µM (inactive) in experiment [10]; 75.7 µM (inactive) in [11]; > 100 µM (inactive) in [12]. In addition, the GI50 is 32.9 µM (inactive) in experiment [13]; 18.7 µM (inactive) in experiment [14]; 48.4 µM (inactive) in [15]; 55 µM (inactive) in experiment [16]; 31.6 µM (inactive) in experiment [17]; 31.6 µM (inactive) in experiment [18]. In addition, the GI50 in experiment [19] was 27.9 µM (inactive); in [20], 29.6 µM (inactive).

For `C/C(=C/C(=O)Nn1c(Cc2ccccc2)n[nH]c1=O)C(=O)O`, the GI50 in [1], in experiment [2], in experiment [3], in [4], in experiment [5] and in experiment [6] was > 100 µM (inactive) throughout. Moreover, the GI50 in experiment [7], in [8], in experiment [9], in experiment [10], in experiment [11] and in experiment [12] was > 100 µM (inactive) in each case. Besides, the GI50 in experiment [13], in experiment [14], in experiment [15], in [16], in experiment [17] and in [18] was > 100 µM (inactive) in each case. Also, the GI50 in experiment [19] and in experiment [20] was > 100 µM (inactive) in each case.

`COc1cc(C2c3cc4c(cc3OC3(OC)COC(=O)C23)OCO4)cc(OC)c1OC` (stereo not given): the GI50 in experiment [1] is 0.375 µM (active); in [2], 0.305 µM (active); in experiment [3], 0.395 µM (active); in [4] it was 0.48 µM (active); in [5] it was 0.355 µM (active); in experiment [6] it was 0.129 µM (active). The GI50 was 0.188 µM (active) in [7]; 0.272 µM (active) in [8]; 0.389 µM (active) in experiment [9]; 0.18 µM (active) in experiment [10]; 0.128 µM (active) in experiment [11]; 3.66 µM (inactive) in experiment [12]. Further, the GI50 in experiment [13] is 0.285 µM (active); in experiment [14], 0.142 µM (active); in experiment [15], 0.173 µM (active); in experiment [16] it was 0.4 µM (active); in experiment [17], 0.292 µM (active); in [18], 0.286 µM (active). Moreover, the figures for the GI50 in experiment [19] and in experiment [20] were 1.19 µM (inactive) and 0.377 µM (active), respectively.

Take `O=S1(=O)CCC2=CC(C(F)(F)F)=CC(C(F)(F)F)=CN21`: the GI50 was 2.96 µM (inactive) in experiment [1]; 0.0738 µM (active) in experiment [2]; 0.542 µM (active) in [3]; 2.34 µM (inactive) in experiment [4]; 3.1 µM (inactive) in experiment [5]; 1.71 µM (inactive) in experiment [6]. Also, the GI50 in experiment [7] is 0.348 µM (active); in experiment [8], 0.693 µM (active); in [9] it was 1.19 µM (inactive); in experiment [10] it was 0.236 µM (active); in experiment [11], 1.09 µM (active); in experiment [12] it was 2.11 µM (inactive). For the same compound, the GI50 in experiment [13] is 2.01 µM (inactive); in [14], 1.47 µM (inactive); in [15] it was 2.12 µM (inactive); in experiment [16] it was 1.78 µM (inactive); in experiment [17], 1.42 µM (inactive); in experiment [18], 0.302 µM (active). In addition, the GI50 in experiment [19] was 0.697 µM (active); in [20] it was 1.83 µM (inactive).

On to `CNC(=O)Nc1cc2c3c(c1)CCCN3CCC2`, for which the GI50 in experiment [1], in experiment [2], in [3], in experiment [4], in experiment [5] and in experiment [6] was > 10 µM (inactive) each time. In addition, the GI50 in experiment [7], in experiment [8], in [9], in experiment [10], in experiment [11] and in [12] was > 10 µM (inactive) in each case. In addition, the GI50 in experiment [13], in [14], in experiment [15], in experiment [16], in [17] and in experiment [18] was > 10 µM (inactive) each time. Moreover, the GI50 in experiment [19] and in experiment [20] was > 10 µM (inactive) in each case.

For `CN(C)c1cc2ccccc2oc1=O`, the GI50 in experiment [1], in [2], in [3], in experiment [4], in [5] and in experiment [6] was > 100 µM (inactive) each time. Moreover, the GI50 in experiment [7], in experiment [8], in [9], in experiment [10], in experiment [11] and in [12] was > 100 µM (inactive) in each case. Besides, the GI50 is > 100 µM (inactive) in experiment [13]; 20.6 µM (inactive) in experiment [14]; > 100 µM (inactive) in experiment [15]; > 100 µM (inactive) in experiment [16]; > 100 µM (inactive) in [17]; > 100 µM (inactive) in experiment [18]. In addition, the GI50 in experiment [19] and in experiment [20] was > 100 µM (inactive) each time.

For the compound `Cn1cnc([N+](=O)[O-])c1[Se]c1ncnc2nc[nH]c12`, the GI50 in [1] is 27.5 µM (inactive); in experiment [2], 9.51 µM (inactive); in experiment [3], 19.1 µM (inactive); in experiment [4], 12 µM (inactive); in experiment [5], 3.7 µM (inactive); in experiment [6] it was 5.69 µM (inactive). Also, the GI50 in experiment [7] is 0.497 µM (active); in experiment [8] it was 5.47 µM (inactive); in experiment [9] it was 17.3 µM (inactive); in experiment [10] it was 3.57 µM (inactive); in [11], 2.07 µM (inactive); in experiment [12] it was 11.4 µM (inactive). Also, the GI50 in experiment [13] is 20.6 µM (inactive); in [14], 15.5 µM (inactive); in experiment [15] it was 4.21 µM (inactive); in [16], 3.79 µM (inactive); in experiment [17] it was 1.66 µM (inactive); in [18], 10.3 µM (inactive). Besides, the GI50 is 1.91 µM (inactive) in experiment [19] and 4.6 µM (inactive) in experiment [20].
